Data: ChEMBL document CHEMBL1201862, “PubChem BioAssay data set” (2004)
Several values for one entry are separate records, joined by “and”; a condition that tells them apart may be missing. Equal values may be shown once.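 How tested: cells in 96-well plates exposed to compound for 48 hours at five concentrations. Abbreviation: GI50, concentration required for 50% inhibition of growth.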 Activity calls are given as the source filed them. No stated cut-off is given here; in the data, active = GI50 up to about 1.1 µM and inactive = higher.

Columns and labels:
Assay in all cases: DTP human tumour cell line panel, 48 h
[1] = system: SNB-75
[2] = system: NCI-H226
[3] = system: MDA-MB-435
[4] = system: KM12
[5] = system: NCI/ADR-RES
[6] = system: A498
[7] = system: IGROV-1
[8] = system: SW-620
[9] = system: Hs-578T
[10] = system: SK-MEL-28
[11] = system: LOX IMVI
[12] = system: SF-295
[13] = system: UACC-257
[14] = system: RXF 393
[15] = system: U-251
[16] = system: OVCAR-5
[17] = system: EKVX
[18] = system: UO-31
[19] = system: SR

Measured: GI50

CN1N=C(c2ccccc2)C(C(c2ccccc2[N+](=O)[O-])C2C(=O)N(C)N=C2c2ccccc2)C1=O (stereo unspecified)
inactive: [1] > 87.1 µM | [2] > 51.1 µM | [3] > 100 µM | [4] > 75 µM | [5] > 100 µM | [6] > 81.8 µM | [7] 25.1 µM | [8] 99.3 µM | [9] > 73.1 µM | [10] > 100 µM | [11] 26.9 µM | [12] > 100 µM | [13] > 71.4 µM | [14] 52 µM | [15] > 100 µM | [16] > 100 µM | [17] > 100 µM | [18] > 100 µM

CC(=O)O[C@H]1C[C@@H](OC(C)=O)[C@@](C)(O)[C@@H]2[C@@H](OC(C)=O)[C@@]3(O)[C@H](/C=C(/CO)[C@H]4O[C@H]4[C@@H](OC(C)=O)[C@@]12C)OC(=O)[C@@H]3C
inactive: [1] 5.53 µM | [2] 9.73 µM | [3] 5.42 µM | [4] 13.5 µM | [5] > 25 µM | [6] > 25 µM | [7] 8.17 µM | [8] 11.5 µM | [9] 8.43 µM | [10] 22.3 µM | [11] 8.71 µM | [12] 6.12 µM | [13] 13.7 µM | [14] 2.08 µM | [15] 6.1 µM | [16] > 25 µM | [17] > 25 µM | [18] 22.5 µM

CNC(=O)N1CN(c2ccccc2)C2(CCN(CCCC(=O)c3ccc(F)cc3)CC2)C1=O
inactive: [1] 29.3 µM | [2] 25.5 µM | [4] 20.9 µM | [5] 17.6 µM | [7] 19.5 µM | [8] 27.3 µM | [19] 21.9 µM | [10] 17.2 µM | [11] 17.1 µM | [12] 16.8 µM | [13] 7.64 µM | [14] 20.5 µM | [15] 21.5 µM | [16] 11.7 µM | [17] 12.8 µM | [18] 7.08 µM

O=C(CC(=O)Nc1ccccc1)N/N=C/c1cc(/N=N/c2ccc(Br)cc2)ccc1O
inactive: [1] > 10 µM | [4] 3.58 µM | [5] 2.88 µM | [7] 4.21 µM | [8] 4.84 µM | [19] 1.39 µM | [9] > 10 µM | [10] 4.41 µM | [11] 4.28 µM | [13] 2.08 µM | [15] 3.61 µM | [17] 3.97 µM | [18] 2.42 µM

O=C(COc1ccc(Cl)cc1Cl)N/N=C/C=C/c1ccc([N+](=O)[O-])o1
inactive: [1] 14.3 µM | [2] 10.5 µM | [3] 2.63 µM | [4] 4.86 µM | [5] 11.9 µM | [6] 11.5 µM | [7] 1.42 µM | [8] 5.37 µM | [9] 1.87 µM | [10] 4.08 µM | [11] 3.27 µM | [12] 23.3 µM | [14] 6.07 µM | [15] 15.7 µM | [16] > 100 µM | [17] 17.5 µM | [18] 5.05 µM

Cc1cccc2sc(NC(=O)NS(=O)(=O)n3cnc4ccccc43)nc12
inactive: [1] 18.8 µM | [2] 59 µM | [3] 27.9 µM | [4] 30.4 µM | [5] 27.4 µM | [6] 25.5 µM | [7] 16.5 µM | [8] 28.4 µM | [9] 13.8 µM | [10] 35.9 µM | [12] 20.9 µM | [13] 23 µM | [14] 15.9 µM | [15] 21 µM | [16] 25.9 µM | [17] 1.67 µM | [18] 22.2 µM

COC(=O)C1OC(O[C@H]2CC[C@]3(C)[C@H]4CC=C5[C@@H]6CC(C)(C)CC[C@]6(C(=O)OC6OCC(O)C(O)C6OC6OC(C)C(OC7OCC(O)C(O)C7O)C(O)C6O)CC[C@@]5(C)[C@]4(C)CC[C@H]3C2(C)C)C(O)C(O)C1O (stereo partly specified)
inactive: [1] 16.5 µM and 16.1 µM | [2] 19.7 µM and 20.8 µM | [3] 19.1 µM and 17.9 µM | [4] 15.6 µM and 16.2 µM | [7] 24.8 µM and 45.8 µM | [8] 19.6 µM and 21.9 µM | [19] 13.1 µM and 10.2 µM | [9] 18.2 µM and 20.6 µM | [10] 14.4 µM and 16.6 µM | [11] 16.4 µM and 14.6 µM | [12] 18.2 µM and 17.4 µM | [13] 14 µM and 16 µM | [14] 21.1 µM and 19.5 µM | [15] 18.4 µM and 18.7 µM | [16] 16.5 µM and 20.7 µM | [17] 17.1 µM | [18] 13.2 µM and 18.9 µM

COc1ccc2c(c1)CC[C@@H]1[C@@H]2CC[C@]2(C)C(=O)/C(=C/c3ccc(N(C)C)cc3)C[C@@H]12
inactive: [1] 24.2 µM | [3] > 100 µM | [4] 84.3 µM | [5] 33 µM | [6] 30.3 µM | [8] > 100 µM | [12] 40.2 µM | [14] 27 µM | [15] 46.1 µM | [16] > 100 µM | [17] 63.5 µM | [18] 98.9 µM

CCN1CCC(C)OP1(=O)Cc1ccccc1 (stereo unspecified)
inactive: [2] > 100 µM | [3] > 100 µM | [4] > 100 µM | [5] > 100 µM | [7] > 100 µM | [8] > 100 µM | [19] > 100 µM | [11] > 100 µM | [12] > 100 µM | [13] > 100 µM | [15] > 100 µM | [16] > 100 µM | [17] > 100 µM | [18] > 100 µM

Nc1nc(N)c2ncn(-c3ccc(Cl)cc3)c2n1
inactive: [1] 10.1 µM | [2] 39.1 µM | [3] 87.3 µM | [4] 26.8 µM | [5] 33.7 µM | [6] 21.8 µM | [7] 6.97 µM | [10] > 100 µM | [11] 36.6 µM | [12] 33.7 µM | [13] > 100 µM | [14] 19.3 µM | [15] 49.1 µM | [16] 16.7 µM | [17] 10.1 µM | [18] 32.3 µM

Cc1nc(Nc2ccc([N+](=O)[O-])cc2)sc1C(=O)/C=C/c1ccc(N(C)C)cc1
inactive: [1] > 100 µM | [4] 57.8 µM | [6] 49.2 µM | [7] > 100 µM | [8] > 100 µM | [10] > 100 µM | [11] 64.7 µM | [12] 40.1 µM | [13] 81.3 µM | [14] 30.4 µM | [15] > 100 µM | [16] > 100 µM | [17] 52.5 µM | [18] 36.8 µM

Cc1ccc(C2=C(C#N)C(=O)N3CCN=C3S2)cc1
inactive: [1] > 100 µM | [2] > 100 µM | [3] > 100 µM | [4] > 100 µM | [5] > 100 µM | [7] > 100 µM | [8] > 100 µM | [19] > 100 µM | [10] > 100 µM | [11] > 100 µM | [12] > 100 µM | [13] > 100 µM | [14] > 100 µM | [15] > 100 µM | [16] > 100 µM | [17] > 100 µM | [18] > 100 µM

COCC([C@@H](O)C(O)C(=O)NCC[C@@H](C)c1nc(/C=C/CC2OC3(C[C@H](O)C2C)OC(C(C[C@H](O)C(C)[C@H](O)C(C)/C=C(C)/C(C)=C/C=C/C(C)=C/C#N)OC)[C@@H](OP(=O)(O)O)C3(C)C)co1)N(C)C (stereo partly specified)
active: [1] 0.000182 µM | [2] 0.00015 µM | [3] 0.000175 µM | [4] 0.000184 µM | [5] 0.00107 µM | [6] 0.00188 µM | [7] 0.000161 µM | [8] 0.000182 µM | [9] 0.000196 µM | [10] 0.000184 µM | [11] 0.000245 µM | [12] 0.000184 µM | [13] 0.00105 µM | [15] 0.000191 µM | [16] 0.000188 µM | [17] 0.000172 µM | [18] 0.00118 µM

COC(=O)[C@H](Cc1c[nH]c2ccccc12)NP(=O)(OCCC#N)OCC1OC(n2cc(C)c(=O)[nH]c2=O)CC1N=[N+]=[N-] (stereo partly specified)
inactive: [1] > 100 µM | [2] > 100 µM | [3] > 100 µM | [4] > 100 µM | [5] > 100 µM | [7] > 100 µM | [8] > 100 µM | [11] > 100 µM | [12] > 100 µM | [13] > 100 µM | [14] > 100 µM | [15] > 100 µM | [16] > 100 µM | [17] > 100 µM | [18] > 100 µM

O=C(O)c1cc(O)c2c(c1)Cc1cccc(O)c1C2=O
inactive: [1] 14.1 µM | [2] 24.1 µM | [3] 33.6 µM | [5] 24.9 µM | [6] 26.9 µM | [7] > 10 µM | [8] 38.5 µM | [19] 26.1 µM | [10] 34.1 µM | [12] 20.3 µM | [13] 26.7 µM | [15] 17.6 µM | [16] 29.9 µM | [17] 22.1 µM | [18] 17.4 µM
